Measured values: article PMC7613998, “Development of selective inhibitors of phosphatidylinositol 3-kinase C2α” (Nature Chemical Biology, 2022)

How the values were obtained:
Test in all cases: biochemical
Set-up in all cases: SelectScreen Z'-LYTE purified kinase panel, per cent inhibition, mean of two points
Settings in all cases: (μM)=Km app
AKT1 (PKB alpha) = AKT1 (PKB alpha) (Homo sapiens, UniProt P31749)
AKT2 (PKB beta) = AKT2 (PKB beta) (Homo sapiens, UniProt P31751)
DCAMKL1 (DCLK1) = biological target: T1, DCAMKL1 (DCLK1) (Homo sapiens, UniProt O15075)
T1 sequence (O15075 1-740): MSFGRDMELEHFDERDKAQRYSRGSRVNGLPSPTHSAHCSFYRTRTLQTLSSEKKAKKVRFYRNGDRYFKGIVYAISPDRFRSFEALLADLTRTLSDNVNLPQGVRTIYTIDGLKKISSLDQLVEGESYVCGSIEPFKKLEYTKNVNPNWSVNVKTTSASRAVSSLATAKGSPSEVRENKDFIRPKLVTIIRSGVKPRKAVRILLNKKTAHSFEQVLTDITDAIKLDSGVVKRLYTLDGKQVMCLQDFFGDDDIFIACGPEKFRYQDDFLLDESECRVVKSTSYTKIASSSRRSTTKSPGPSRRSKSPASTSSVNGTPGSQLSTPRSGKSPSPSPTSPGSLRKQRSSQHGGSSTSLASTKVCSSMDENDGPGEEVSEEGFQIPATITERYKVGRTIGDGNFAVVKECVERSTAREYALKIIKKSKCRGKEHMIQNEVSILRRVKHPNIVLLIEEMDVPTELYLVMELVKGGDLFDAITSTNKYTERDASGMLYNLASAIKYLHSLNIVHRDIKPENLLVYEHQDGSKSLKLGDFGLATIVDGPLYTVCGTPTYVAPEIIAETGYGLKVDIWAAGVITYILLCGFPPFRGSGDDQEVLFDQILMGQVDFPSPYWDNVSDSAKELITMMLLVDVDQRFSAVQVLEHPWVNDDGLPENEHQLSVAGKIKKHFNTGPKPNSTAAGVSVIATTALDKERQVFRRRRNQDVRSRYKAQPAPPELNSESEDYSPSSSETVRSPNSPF

EPHA2 = EPHA2 (Homo sapiens, UniProt P29317)
FGFR2 = FGFR2 (Homo sapiens, UniProt P21802)
JAK1 = JAK1 (Homo sapiens, UniProt P23458)
JAK2 JH1 JH2 = biological target: T2, JAK2 JH1 JH2 (Homo sapiens, UniProt O60674)
T2 construct: JH1 JH2
T2 sequence (O60674 whole entry): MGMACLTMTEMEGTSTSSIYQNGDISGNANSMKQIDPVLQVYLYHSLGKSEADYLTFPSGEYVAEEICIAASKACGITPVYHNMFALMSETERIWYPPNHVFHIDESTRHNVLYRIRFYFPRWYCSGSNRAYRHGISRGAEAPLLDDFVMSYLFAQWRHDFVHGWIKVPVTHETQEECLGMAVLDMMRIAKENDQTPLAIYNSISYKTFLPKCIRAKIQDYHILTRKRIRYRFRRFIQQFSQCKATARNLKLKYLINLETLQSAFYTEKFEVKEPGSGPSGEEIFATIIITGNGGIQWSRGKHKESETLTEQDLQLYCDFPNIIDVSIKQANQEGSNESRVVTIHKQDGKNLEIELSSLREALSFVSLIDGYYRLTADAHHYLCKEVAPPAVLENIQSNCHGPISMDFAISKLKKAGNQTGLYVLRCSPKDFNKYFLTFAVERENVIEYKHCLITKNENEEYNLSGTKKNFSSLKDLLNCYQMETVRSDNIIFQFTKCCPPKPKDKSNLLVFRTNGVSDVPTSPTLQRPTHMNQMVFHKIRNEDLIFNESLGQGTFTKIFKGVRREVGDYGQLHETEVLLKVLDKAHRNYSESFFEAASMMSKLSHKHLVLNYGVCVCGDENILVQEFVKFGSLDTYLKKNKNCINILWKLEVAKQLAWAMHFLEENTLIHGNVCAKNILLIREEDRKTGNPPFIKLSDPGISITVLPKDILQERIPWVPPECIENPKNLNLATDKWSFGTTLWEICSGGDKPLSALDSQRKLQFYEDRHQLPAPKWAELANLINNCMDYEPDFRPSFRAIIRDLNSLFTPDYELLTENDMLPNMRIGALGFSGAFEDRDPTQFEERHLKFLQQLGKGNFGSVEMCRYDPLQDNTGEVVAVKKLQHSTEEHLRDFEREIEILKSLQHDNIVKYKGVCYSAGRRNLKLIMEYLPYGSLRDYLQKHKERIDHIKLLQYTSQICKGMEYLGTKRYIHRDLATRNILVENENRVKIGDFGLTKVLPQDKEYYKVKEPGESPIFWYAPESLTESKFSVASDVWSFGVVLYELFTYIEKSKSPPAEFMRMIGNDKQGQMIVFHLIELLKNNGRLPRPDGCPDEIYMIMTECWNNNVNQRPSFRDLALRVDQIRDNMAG

KDR (VEGFR2) = KDR (VEGFR2) (Homo sapiens, UniProt P35968)
KDR (VEGFR2), sequence (P35968 whole entry): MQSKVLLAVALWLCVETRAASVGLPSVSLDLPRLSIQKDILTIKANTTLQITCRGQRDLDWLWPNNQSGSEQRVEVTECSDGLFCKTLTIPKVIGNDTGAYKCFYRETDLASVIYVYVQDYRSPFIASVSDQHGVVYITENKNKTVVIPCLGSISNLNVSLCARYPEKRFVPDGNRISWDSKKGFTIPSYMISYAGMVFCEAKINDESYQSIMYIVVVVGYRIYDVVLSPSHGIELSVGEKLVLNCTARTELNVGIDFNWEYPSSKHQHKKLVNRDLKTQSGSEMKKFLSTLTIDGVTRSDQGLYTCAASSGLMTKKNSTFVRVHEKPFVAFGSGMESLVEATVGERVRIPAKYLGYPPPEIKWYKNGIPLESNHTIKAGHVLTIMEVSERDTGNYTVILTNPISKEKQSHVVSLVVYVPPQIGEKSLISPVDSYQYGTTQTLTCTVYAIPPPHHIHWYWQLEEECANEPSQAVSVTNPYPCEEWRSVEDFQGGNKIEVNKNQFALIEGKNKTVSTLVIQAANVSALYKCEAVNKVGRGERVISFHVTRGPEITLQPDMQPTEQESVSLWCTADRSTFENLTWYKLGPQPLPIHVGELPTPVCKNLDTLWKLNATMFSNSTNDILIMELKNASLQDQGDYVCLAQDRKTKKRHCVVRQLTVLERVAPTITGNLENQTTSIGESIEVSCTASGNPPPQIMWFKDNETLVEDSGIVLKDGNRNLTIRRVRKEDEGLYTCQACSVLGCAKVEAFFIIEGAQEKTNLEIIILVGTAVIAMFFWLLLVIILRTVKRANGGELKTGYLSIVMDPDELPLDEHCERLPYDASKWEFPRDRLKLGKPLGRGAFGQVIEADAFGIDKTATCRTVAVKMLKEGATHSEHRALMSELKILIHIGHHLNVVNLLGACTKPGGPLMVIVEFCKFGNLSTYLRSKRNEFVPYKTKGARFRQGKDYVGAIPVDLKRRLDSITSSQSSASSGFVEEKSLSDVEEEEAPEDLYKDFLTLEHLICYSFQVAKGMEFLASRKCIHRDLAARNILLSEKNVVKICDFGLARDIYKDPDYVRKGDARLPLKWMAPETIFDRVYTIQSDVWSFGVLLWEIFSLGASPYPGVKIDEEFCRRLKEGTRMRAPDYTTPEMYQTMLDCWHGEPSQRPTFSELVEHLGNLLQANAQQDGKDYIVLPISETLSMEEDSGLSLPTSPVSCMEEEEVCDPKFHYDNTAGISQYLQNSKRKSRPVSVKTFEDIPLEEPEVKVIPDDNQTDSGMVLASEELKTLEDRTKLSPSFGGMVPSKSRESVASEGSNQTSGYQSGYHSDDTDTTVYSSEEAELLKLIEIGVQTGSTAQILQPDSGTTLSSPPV

PIM1 = PIM1 (Homo sapiens, UniProt P11309)
PIM1, sequence (P11309 whole entry): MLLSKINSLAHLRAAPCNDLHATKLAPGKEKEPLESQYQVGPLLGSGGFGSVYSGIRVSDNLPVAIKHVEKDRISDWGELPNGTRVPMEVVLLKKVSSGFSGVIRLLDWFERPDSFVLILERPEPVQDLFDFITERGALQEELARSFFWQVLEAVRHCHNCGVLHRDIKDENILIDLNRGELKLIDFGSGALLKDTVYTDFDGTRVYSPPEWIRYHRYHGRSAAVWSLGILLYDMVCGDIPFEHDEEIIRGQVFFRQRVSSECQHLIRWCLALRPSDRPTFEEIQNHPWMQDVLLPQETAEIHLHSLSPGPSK

PTK2 (FAK) = PTK2 (FAK) (Homo sapiens, UniProt Q05397)
RET = RET (Homo sapiens, UniProt P07949)
RET, sequence (P07949 whole entry): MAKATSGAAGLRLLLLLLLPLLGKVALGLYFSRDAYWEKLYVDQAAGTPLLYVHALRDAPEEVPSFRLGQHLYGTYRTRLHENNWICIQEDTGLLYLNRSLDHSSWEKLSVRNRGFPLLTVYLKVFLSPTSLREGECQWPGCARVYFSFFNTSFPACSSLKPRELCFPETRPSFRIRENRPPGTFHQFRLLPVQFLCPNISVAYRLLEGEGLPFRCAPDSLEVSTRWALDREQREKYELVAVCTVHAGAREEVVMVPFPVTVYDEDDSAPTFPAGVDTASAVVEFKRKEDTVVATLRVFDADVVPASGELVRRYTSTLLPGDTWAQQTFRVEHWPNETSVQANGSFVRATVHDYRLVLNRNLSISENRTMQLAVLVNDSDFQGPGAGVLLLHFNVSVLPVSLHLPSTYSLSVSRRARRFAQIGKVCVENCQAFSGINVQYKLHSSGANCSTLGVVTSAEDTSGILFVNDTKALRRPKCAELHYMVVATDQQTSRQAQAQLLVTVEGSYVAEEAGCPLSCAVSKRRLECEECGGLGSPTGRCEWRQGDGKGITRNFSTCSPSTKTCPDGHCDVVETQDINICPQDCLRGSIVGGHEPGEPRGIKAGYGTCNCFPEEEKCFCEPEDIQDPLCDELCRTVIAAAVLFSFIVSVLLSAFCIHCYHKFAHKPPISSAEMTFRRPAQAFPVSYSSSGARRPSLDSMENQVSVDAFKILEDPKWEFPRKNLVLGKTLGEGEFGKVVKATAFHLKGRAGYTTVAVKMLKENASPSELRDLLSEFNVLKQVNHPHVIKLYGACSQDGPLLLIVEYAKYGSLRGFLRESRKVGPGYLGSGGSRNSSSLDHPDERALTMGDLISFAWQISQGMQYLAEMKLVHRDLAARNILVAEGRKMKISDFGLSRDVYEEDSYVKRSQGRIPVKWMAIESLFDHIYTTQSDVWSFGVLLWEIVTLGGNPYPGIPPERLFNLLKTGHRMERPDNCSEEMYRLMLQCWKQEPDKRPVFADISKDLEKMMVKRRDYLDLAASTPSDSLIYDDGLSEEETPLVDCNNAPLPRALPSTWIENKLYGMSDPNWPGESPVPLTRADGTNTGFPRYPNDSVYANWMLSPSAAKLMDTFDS

AKT1 (PKB alpha), sequence (P31749 whole entry): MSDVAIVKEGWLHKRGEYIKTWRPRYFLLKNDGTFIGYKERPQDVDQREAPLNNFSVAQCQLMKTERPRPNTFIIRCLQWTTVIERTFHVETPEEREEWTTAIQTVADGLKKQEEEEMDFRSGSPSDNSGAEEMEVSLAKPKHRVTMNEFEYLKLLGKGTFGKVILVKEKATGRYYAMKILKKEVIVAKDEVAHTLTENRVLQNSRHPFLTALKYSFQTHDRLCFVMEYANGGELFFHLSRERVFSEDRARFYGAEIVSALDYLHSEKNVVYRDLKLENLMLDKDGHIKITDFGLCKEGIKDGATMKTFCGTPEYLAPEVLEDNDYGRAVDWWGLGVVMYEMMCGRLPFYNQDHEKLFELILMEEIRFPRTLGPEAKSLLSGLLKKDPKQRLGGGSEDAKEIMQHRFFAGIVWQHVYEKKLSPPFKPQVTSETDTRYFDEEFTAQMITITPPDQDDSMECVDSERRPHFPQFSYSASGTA
AKT2 (PKB beta), sequence (P31751 whole entry): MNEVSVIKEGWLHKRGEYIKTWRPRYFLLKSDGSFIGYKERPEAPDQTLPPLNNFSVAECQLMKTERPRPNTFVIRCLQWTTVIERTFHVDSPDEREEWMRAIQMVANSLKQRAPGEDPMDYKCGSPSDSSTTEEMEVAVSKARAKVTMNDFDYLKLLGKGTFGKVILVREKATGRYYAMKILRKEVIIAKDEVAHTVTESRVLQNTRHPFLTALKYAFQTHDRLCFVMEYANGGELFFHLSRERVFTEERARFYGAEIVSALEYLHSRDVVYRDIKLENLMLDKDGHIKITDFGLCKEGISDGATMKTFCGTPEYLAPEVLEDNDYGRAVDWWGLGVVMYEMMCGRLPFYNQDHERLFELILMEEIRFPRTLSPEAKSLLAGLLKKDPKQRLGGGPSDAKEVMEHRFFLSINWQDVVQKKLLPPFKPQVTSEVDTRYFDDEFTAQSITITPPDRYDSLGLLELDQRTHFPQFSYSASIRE

Row | inhibition at 1 µM (AKT1 (PKB alpha)) | inhibition at 3 µM (AKT1 (PKB alpha)) | inhibition at 10 µM (AKT1 (PKB alpha)) | inhibition at 1 µM (AKT2 (PKB beta)) | inhibition at 3 µM (AKT2 (PKB beta)) | inhibition at 10 µM (AKT2 (PKB beta)) | inhibition at 1 µM (DCAMKL1 (DCLK1)) | inhibition at 3 µM (DCAMKL1 (DCLK1)) | inhibition at 10 µM (DCAMKL1 (DCLK1)) | inhibition at 1 µM (EPHA2) | inhibition at 3 µM (EPHA2) | inhibition at 10 µM (EPHA2) | inhibition at 1 µM (FGFR2) | inhibition at 3 µM (FGFR2) | inhibition at 10 µM (FGFR2) | inhibition at 1 µM (JAK1) | inhibition at 3 µM (JAK1) | inhibition at 10 µM (JAK1) | inhibition at 1 µM (JAK2 JH1 JH2) | inhibition at 3 µM (JAK2 JH1 JH2) | SMILES | also measured
1 | 1.93% | 0.317% | 0.625% | 4.3% | 3.38% | 4.53% | -1.36% | -3.92% | 1.03% | 6.54% | 8.4% | 9.38% | 1.54% | 2.27% | -1.86% | 6.58% | 2.72% | 0.0941% | -0.97% | -0.0652% | O=C(CSc1nc2nccnc2c(=O)n1CCc1ccccc1)Nc1nccs1 [compound 1, PITCOIN1] | inhibition at 10 µM (JAK2 JH1 JH2): -0.468%; inhibition at 1 µM (KDR (VEGFR2)): 8.19%; inhibition at 3 µM (KDR (VEGFR2)): 4.57%; inhibition at 10 µM (KDR (VEGFR2)): -0.425%; inhibition at 1 µM (PIM1): 8.8%; inhibition at 3 µM (PIM1): 5.6%; inhibition at 10 µM (PIM1): -0.465%; inhibition at 1 µM (PTK2 (FAK)): 4.94%; inhibition at 3 µM (PTK2 (FAK)): 3.7%; inhibition at 10 µM (PTK2 (FAK)): 2.3%; inhibition at 1 µM (RET): 4.11%; inhibition at 3 µM (RET): 3.69%; inhibition at 10 µM (RET): 4.56%
2 | -1.18% | 7.49% | 3.66% | 6.93% | 6.2% | 4.52% | -7.05% | -11.7% | 13.7% | 13.8% | 8.03% | 8.38% | 6.04% | 6.91% | 3.2% | 2.76% | 4.25% | 0.516% | 0.755% | 0.839% | CS(=O)(=O)Nc1cccc(-c2csc(NC(=O)CSc3nc4nccnc4c(=O)n3CCc3ccccc3)n2)c1 [compound 3, PITCOIN3] | inhibition at 10 µM (JAK2 JH1 JH2): 1.69%; inhibition at 1 µM (KDR (VEGFR2)): 0.654%; inhibition at 3 µM (KDR (VEGFR2)): 10.7%; inhibition at 10 µM (KDR (VEGFR2)): 9.78%; inhibition at 1 µM (PIM1): -8.14%; inhibition at 3 µM (PIM1): 9.01%; inhibition at 10 µM (PIM1): 5.45%; inhibition at 1 µM (PTK2 (FAK)): 9.45%; inhibition at 3 µM (PTK2 (FAK)): 8.02%; inhibition at 10 µM (PTK2 (FAK)): 6.38%; inhibition at 1 µM (RET): 7.87%; inhibition at 3 µM (RET): 5.35%; inhibition at 10 µM (RET): 5%
